The values below come from US6821980B1, “Substituted 5-benzyl-2,4-diaminopyrimidines” (Basilea Pharmaceutica AG, priority 1999, dated 2004).

Assay [1] addresses T1, purified DHFR of strain Sp1/1 of Streptococcus pneumoniae (Streptococcus pneumoniae serotype 4, UniProt Q54801).
T1 sequence (Q54801 1-168 I100L): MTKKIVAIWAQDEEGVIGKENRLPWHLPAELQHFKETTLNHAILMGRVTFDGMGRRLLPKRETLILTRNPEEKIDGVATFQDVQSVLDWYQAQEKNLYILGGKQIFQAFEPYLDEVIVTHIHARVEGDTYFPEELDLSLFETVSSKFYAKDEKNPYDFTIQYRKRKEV
The assay is classed as biochemical. The note with it: IC50 against purified DHFR of strain Sp1/1.

Assay [2] deals with Streptococcus pneumoniae 1/1. In words: MIC against Streptococcus pneumoniae 1/1. The class given is cell-based. Particulars: Streptococcus pneumoniae 1/1, trimethoprim- and penicillin-resistant, serotype 6, clinical isolate; for MIC: read-out: MIC Sp1/1.
The target in assay [3] is purified DHFR of strain 157/4696 of Staphylococcus aureus (Staphylococcus aureus, UniProt P13955). Nature of the assay: biochemical.
purified DHFR of strain 157/4696 of Staphylococcus aureus, sequence (P13955 whole entry): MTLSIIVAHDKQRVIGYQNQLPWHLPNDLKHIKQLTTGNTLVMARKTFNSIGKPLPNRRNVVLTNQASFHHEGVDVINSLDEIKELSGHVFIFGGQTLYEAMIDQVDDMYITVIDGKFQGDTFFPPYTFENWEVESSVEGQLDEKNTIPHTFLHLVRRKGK
Assay [4] deals with Staphylococcus aureus 101. In words: MIC against Staphylococcus aureus 101. The assay is classed as cell-based. The note with it: Staphylococcus aureus 101, MRSA- and trimethoprim-resistant, clinical isolate; for MIC: read-out: MIC Sa101.
Setting [5] is: Table 2, IC50 against purified DHFR of strain 157/4696 (highly trimethoprim-resistant; clinical isolate), read-out: DHFR Sa1.

Converted amounts (≈) assume the structure as drawn. Where two headings read alike, the source gives them in different places.

Consider `CCOc1cc(Cc2cnc(N)nc2N)cc(OS(=O)(=O)CC(C)C)c1-c1ccc(N)cc1` [Example 36-c, 2-Methyl-propane-1-sulphonic acid 4′-amino-4-(2,4-diamino-pyrimidin-5-ylmethyl)-6-ethoxy-biphenyl-2-yl ester], for which the IC50 in assay [1] (Table 2) stood at 4.8 nM; in assay [3], 240 nM. In addition, the MIC in assay [2] (Table 2) stood at 0.5 µg/mL (≈ 1.06 µM); in assay [4] (Table 2), 2 µg/mL (≈ 4.24 µM).

Consider `CCOc1cc(Cc2cnc(N)nc2N)cc(OS(=O)(=O)CC(C)C)c1-c1ccc(OC)c(N)c1` [Example 36-d, 2-Methyl-prooane-1-sulphonic acid 3′-amino-4-(2,4-diamino-pyrimidin-5-ylmethyl)-6-ethoxy-4′-methoxy-biphenyl-2-yl ester], for which the IC50 in assay [1] (Table 2) was found to be 0.68 nM; in assay [3] it was 66 nM. Besides, the MIC was determined as 0.5 µg/mL (≈ 0.997 µM) in assay [2] (Table 2) and 2 µg/mL (≈ 3.99 µM) in assay [4] (Table 2).

With `CCOc1cc(Cc2cnc(N)nc2N)cc(OS(=O)(=O)CC(C)C)c1-c1ccc(NCCO)cc1` [Example 36-e, 2-Methyl-propane-1-sulphonic acid 4-(2,4-diamino-pyrimidin-5-ylmethyl)-6-ethoxy-4′-(2-hydroxy-ethylamino)-biphenyl-2-yl ester], the IC50 in assay [1] (Table 2) came out at 2.1 nM; in assay [3], 250 nM. In addition, the MIC in assay [2] (Table 2) is 0.5 µg/mL (≈ 0.97 µM); in assay [4] (Table 2) it was 4 µg/mL (≈ 7.76 µM).

`CCOc1cc(Cc2cnc(N)nc2N)cc(OS(=O)(=O)CC(C)(C)C)c1-c1ccc(N)c(F)c1` [Example 37-a, 2,2-Dimethyl-propane-1-sulphonic acid 4′-amino-4-(2,4-diamino-pyrimidin-5-ylmethyl)-6-ethoxy-3′-fluoro-biphenyl-2-yl ester]: the IC50 in assay [1] (Table 2) was 4.5 nM; in assay [3] it was 550 nM. Besides, the MIC in assay [2] (Table 2) worked out at 0.25 µg/mL (≈ 0.496 µM); in assay [4] (Table 2), 4 µg/mL (≈ 7.94 µM).

Take `CCOc1cc(Cc2cnc(N)nc2N)cc(OS(=O)(=O)CC(C)(C)C)c1-c1ccc(OC)c(N)c1` [Example 37-b, 2,2-Dimethyl-propane-1-sulphonic acid 3′-amino-4-(2,4-diamino-pyrimidin-5-ylmethyl)-6-ethoxy-4′-methoxy-biphenyl-2-yl ester]: the IC50 in assay [1] (Table 2) turned out to be 1.7 nM; in assay [3] it was 260 nM. The MIC in assay [2] (Table 2) came out at 0.25 µg/mL (≈ 0.485 µM); in assay [4] (Table 2), 4 µg/mL (≈ 7.76 µM).

As to `CCOc1cc(Cc2cnc(N)nc2N)cc(OS(=O)(=O)CC(C)(C)C)c1-c1ccc(N)cc1` [Example 37-c, 2,2-Dimethyl-propane-1-sulphonic acid 4′-amino-4-(2,4-diamino-pyrimidin-5-ylmethyl)-6-ethoxy-biphenyl-2-yl ester], the IC50 in assay [1] (Table 2) turned out to be 1.8 nM; in assay [3] it was 580 nM. The MIC in assay [2] (Table 2) worked out at 0.5 µg/mL (≈ 1.03 µM); in assay [4] (Table 2), 4 µg/mL (≈ 8.24 µM).

As for `CCOc1cc(Cc2cnc(N)nc2N)cc(OS(=O)(=O)CC(C)(C)C)c1-c1ccc(NCCO)cc1` [Example 37-d, 2,2-Dimethyl-propane-1-sulphonic acid 4-(2,4-diamino-pyrimidin-5-ylmethyl)-6-ethoxy-4′-(2-hydroxy-ethylamino)-biphenyl-2-yl ester], the figures for the IC50 in assay [1] (Table 2) and in assay [3] were 1.5 nM and 290 nM, respectively. For the same compound, the MIC in assay [2] (Table 2) turned out to be 0.25 µg/mL (≈ 0.472 µM); in assay [4] (Table 2) it was 8 µg/mL (≈ 15.1 µM).

As to `CCOc1cc(Cc2cnc(N)nc2N)cc(OS(=O)(=O)CC2CC2)c1-c1cccc(N)c1` [Example 38-a, Cyclopropylmethane-sulphonic acid 3′-amino-4-(2,4-diamino-pyrimidin-5-ylmethyl)-6ethoxy-biphenyl-2-yl ester], the IC50 worked out at 5.2 nM in assay [1] (Table 2) and 160 nM in assay [3]. The MIC in assay [2] (Table 2) was 1 µg/mL (≈ 2.13 µM); in assay [4] (Table 2) it was 2 µg/mL (≈ 4.26 µM).

`CCOc1cc(Cc2cnc(N)nc2N)cc(OS(=O)(=O)CC2CC2)c1-c1ccc(N)c(F)c1` [Example 38-b, Cyclopropylmethane-sulphonic acid 4′-amino-4-(2,4-diamino-pyrimidin-5-ylmethyl)-6-ethoxy-3′-fluoro-4-ylmethyl-biphenyl-2-yl ester]: the IC50 in assay [1] (Table 2) came out at 6.5 nM; in assay [3] (setting [5]) it was 220 nM. Besides, the “MIC Sp1/1” value in assay [2] (Table 2) amounted to 1 µg/mL (≈ 2.05 µM). Further, in assay [4] (Table 2), the “MIC Sa101” value was 2 µg/mL (≈ 4.1 µM).

In the case of `CCOc1cc(Cc2cnc(N)nc2N)cc(OS(=O)(=O)CC2CC2)c1-c1ccc(N)c(C)c1` [Example 38-c, Cyclopropylmethane-sulphonic acid 4′-amino-4-(2,4-diamino-pyrimidin-5-ylmethyl)-6-ethoxg-3′-methyl-biphenyl-2-yl ester], the IC50 in assay [1] (Table 2) worked out at 5.8 nM; in assay [3], 190 nM. The results for the MIC in assay [2] (Table 2) and in assay [4] (Table 2) were 0.5 µg/mL (≈ 1.03 µM) and 2 µg/mL (≈ 4.14 µM), respectively.

`CCOc1cc(Cc2cnc(N)nc2N)cc(OS(=O)(=O)CC2CC2)c1-c1ccc(CN2CCOCC2)c(N)c1` [Example 38-d, Cyclopropylmethane-sulphonic acid 3′-amino-4-(2,4-diamino-pyrimidin-5-ylmethyl)-6-ethoxy-4′-morpholinemethyl-biphenyl-2-yl ester]: the IC50 is 3.2 nM in assay [1] (Table 2) and 240 nM in assay [3] (setting [5]). Besides, in assay [2] (Table 2), the “MIC Sp1/1” value was determined as 1 µg/mL (≈ 1.76 µM). In addition, the “MIC Sa101” value in assay [4] (Table 2) was 4 µg/mL (≈ 7.03 µM).

For `CCOc1cc(Cc2cnc(N)nc2N)cc(OS(=O)(=O)CC(C)(C)OC)c1-c1cccc(N)c1` [Example 39-a, (2-Methoxy-2-methyl-propane)-1-sulphonic acid 3′-amino-4-(2,4-diamino-pyrimidin-5-ylmethyl)-6-ethoxy-biphenyl-2-yl ester], the IC50 in assay [1] (Table 2) turned out to be 4.2 nM; in assay [3] it was 390 nM. The MIC in assay [2] (Table 2) is 1 µg/mL (≈ 1.99 µM); in assay [4] (Table 2), 4 µg/mL (≈ 7.97 µM).

As to `CCOc1cc(Cc2cnc(N)nc2N)cc(OS(=O)(=O)CC(C)(C)OC)c1-c1ccc(N)c(C)c1` [Example 39-b, (2-Methoxy-2-methyl-propane)-1-sulphonic acid 4′-amino-4-(2,4-diamino-pyrimidin-5-ylmethyl)-6-ethoxy-3′-methyl-biphenyl-2-yl ester], the results for the IC50 in assay [1] (Table 2) and in assay [3] were 4.9 nM and 250 nM, respectively. The MIC in assay [2] (Table 2) is 0.5 µg/mL (≈ 0.97 µM); in assay [4] (Table 2), 4 µg/mL (≈ 7.76 µM).

Take `CCOc1cc(Cc2cnc(N)nc2N)cc(OS(=O)(=O)CC(C)(C)OC)c1-c1ccc(N)c(F)c1` [Example 39-c, (2-Methoxg-2-methyl-propane)-1-sulphonic acid 4′-amino-4-(2,4-diamino-pyrimidin-5-ylmethyl)-6-ethoxy-3′-fluoro-4-ylmethyl-biphenyl-2-yl ester]: the IC50 in assay [1] (Table 2) worked out at 14 nM; in assay [3] (setting [5]), 1000 nM. In addition, the “MIC Sp1/1” value in assay [2] (Table 2) was found to be 1 µg/mL (≈ 1.92 µM). For the same compound, the “MIC Sa101” value in assay [4] (Table 2) came to 8 µg/mL (≈ 15.4 µM).

For `CCOc1cc(Cc2cnc(N)nc2N)cc(OS(=O)(=O)CC(C)(C)OC)c1-c1ccc(CN2CCOCC2)c(N)c1` [Example 39-d, (2-Methoxy-2-methyl-propane)-1-sulphonic acid 3′-amino-4-(2,4-diamino-pyrimidin-5-ylmethyl)-6-ethoxy-4′-morpholinemethyl-biphenyl-2-yl ester], the IC50 came out at 2.6 nM in assay [1] (Table 2) and 410 nM in assay [3] (setting [5]). The “MIC Sp1/1” value in assay [2] (Table 2) was found to be 2 µg/mL (≈ 3.33 µM). Besides, the “MIC Sa101” value in assay [4] (Table 2) was determined as 8 µg/mL (≈ 13.3 µM).

Turning to `CCOc1cc(Cc2cnc(N)nc2N)cc(OS(=O)(=O)C2CCC2)c1-c1cccc(N)c1` [Example 40-a, Cyclobutane-sulphonic acid 3′-amino-4-(2,4-diamino-pyrimidin-5-ylmethyl)-6-ethoxy-biphenyl-2-yl ester], the IC50 stood at 6.5 nM in assay [1] (Table 2) and 52 nM in assay [3]. Besides, the MIC worked out at 1 µg/mL (≈ 2.13 µM) in assay [2] (Table 2) and 2 µg/mL (≈ 4.26 µM) in assay [4] (Table 2).

For `CCOc1cc(Cc2cnc(N)nc2N)cc(OS(=O)(=O)C2CCC2)c1-c1ccc(N)c(F)c1` [Example 40-b, Cylobutane-sulphonic acid 4′-amino-4-(2,4-diamino-pyrimidin-5-ylmethyl)-6-ethoxy-3′-fluoro-4-ylmethyl-biphenyl-2-yl ester], the IC50 in assay [1] (Table 2) was 27 nM; in assay [3] (setting [5]) it was 310 nM. The “MIC Sp1/1” value in assay [2] (Table 2) was found to be 1 µg/mL (≈ 2.05 µM). The “MIC Sa101” value in assay [4] (Table 2) came to 2 µg/mL (≈ 4.1 µM).

With `CCOc1cc(Cc2cnc(N)nc2N)cc(OS(=O)(=O)C2CCC2)c1-c1ccc(CN2CCOCC2)c(N)c1` [Example 40-d, Cyclobutane-sulphonic acid 3′-amino-4-(2,4-diamino-pyrimidin-5-ylmethyl)-6-ethoxy-4′-morpholinomethyl-biphenyl-2-yl ester], the results for the IC50 in assay [1] (Table 2) and in assay [3] were 17 nM and 130 nM, respectively. Moreover, the MIC in assay [2] (Table 2) and in assay [4] (Table 2) was 2 µg/mL (≈ 3.52 µM) throughout.

As for `CCOc1cc(Cc2cnc(N)nc2N)cc(OS(=O)(=O)C2CCC2)c1-c1cc(N)cc(F)c1` [Example 40-e, Cyclobutane-sulphonic acid 3′-amino-4-(2,4-diamino-pyrimidin-5-ylmethyl)-6-ethoxy-5′-fluoro-biphenyl-2-yl ester], the values for the IC50 in assay [1] (Table 2) and in assay [3] were 79 nM and 160 nM, respectively. For the same compound, the MIC in assay [2] (Table 2) and in assay [4] (Table 2) was 2 µg/mL (≈ 4.1 µM) in each case.

As to `CCOc1cc(Cc2cnc(N)nc2N)cc(OS(=O)(=O)C2CCC2)c1-c1ccc(N)c(C)c1` [Example 40c, Cyclobutane-sulphonic acid 4′-amino-4-(2,4-diamino-pyrimidin-5-ymethyl)-6-ethoxy-3′-methyl-biphenyl-2-yl ester], the IC50 in assay [1] (Table 1) amounted to 19 nM; in assay [3] it was 37 nM. Besides, the MIC in assay [2] (Table 1) turned out to be 0.5 µg/mL (≈ 1.03 µM); in assay [4] (Table 1), 1 µg/mL (≈ 2.07 µM).
